In patent US20120022142A1, “RNA Interference Mediated Inhibition of Signal Transducer and Activator of Transcription 1 (STAT1) Gene Expression Using Short Interfering Nucleic Acid (siNA)” (Merck Sharp & Dohme Corp., priority 2009, published 2012):
[invAb] = inverted abasic unit; m = 2'-O-methyl; r = 2'-OH (RNA); f = 2'-fluoro

Key:
[1] = system: STAT1 mRNA; experiment: Efficacy (% KD) and potency (IC50) of STAT1 mRNA knockdown of siNA leads in NIH3T3 cells; type: cell-based, mouse; details: mean ± S.D.; for IC50: STAT1 mRNA knockdown, read-out: Mouse (NIH3T3) IC50; for Mouse (NIH3T3) avg % KD: STAT1 mRNA, 30 nM siNA, at least three experiments
Protocol: NIH 3T3 (mouse; ATCC cat# CRL-1658): Cells were cultured at 37° C. in the presence of 5% CO2 and grown in Dulbecco's modified Eagle's medium (DMEM) with 4 mM L-glutamine adjusted to contain 1.5 g/L sodium bicarbonate and 4.5 g/L glucose and supplemented with fetal bovine serum at a final concentration of 10%, 100 μg/mL of streptomycin, and 100 U/mL penicillin.
(§1) A series of probes and primers were used to detect the various mRNA transcripts of the genes of β-Actin (human cell line only), and of STAT1 and GAPDH in mouse and human cell lines. All Taqman probes and primers for the experiments here-in described were supplied as pre-validated sets by Applied Biosystems, Inc. (see Table 2).
The assays were performed on an ABI 7900 instrument, according to the manufacturer's instructions.
The expression level of the gene of interest and % knock-down was calculated using Comparative Ct method: […]
All calculations of IC50s were performed using SigmaPlot 10.0 software. The data were analyzed using the sigmoidal dose-response (variable slope) equation for simple ligand binding. In all of the calculations of the % knock-down, the calculation was made relative to the normalized level of expression of the gene of interest in the samples treated with the non-targeting control (Ctrl siNA) unless otherwise indicated.
Certain siNAs were further analyzed for efficacy in human A549 cells and mouse NIH3T3 cells. Percent KD/reduction is represented as mean±S.D. IC50 is represented as mean±S.D. The date is summarized from at least three separate experiments and within each experiment, the data point is calculated from an n=2. The final concentration of siNA used was 30 nM.

[2] = system: STAT1 protein; experiment: STAT1 Western Blot in transfected A549 cells; type: cell-based, human; details: % protein remaining (STAT1α and STAT1β together), A549, 30 nM; for Protein 24 hr: 24 hr post-transfection; for Protein 48 hr: 48 hr post-transfection; for Protein 72 hr: 72 hr post-transfection
Protocol: (§2) A549 cells were plated in 6-well plates at final counts of 70,000 cells/well in 2 ml of complete growth media (Ham's F12, Cellgro Cat# 10-080-CV+10% FBS). Transfection was performed using 2.5 uL of RNAiMax (Invitrogen Cat# 13778-150) per well. Final concentration of siNAs was 30, 3, 0.3, 0.03, 0.003, and 0.0003 nM done in duplicate. The siNAs were incubated for 24-72 hours. The duplicate samples were pooled to prepare protein lysates and RNA using the “PARIS” Protein and RNA Isolation System from Ambion, Cat# 1921. The total protein in the lysates was measured using a Bradford Dye Reagent (Bio-Rad, Cat# 500-0205).SDS-PAGE/Western Blotting was performed on the on the protein samples and RT-PCR on the RNA samples.
The protein source for the Western Blot experiments were from transfection of A549 cells in a 6 well plate, as described above.
Protein samples were diluted 1:1 in 2× Laemmli buffer with 5% β-mercapto-ethanol and incubated at 95° C. for 5 minutes. 10 ug of protein was loaded in each lane of 7.5% Tris-HCl gel. One lane was designated for MagicMark Protein Standard (Invitrogen # LC5602). Another lane was designated for a Precision Plus Protein Standard (Bio-Rad, Cat# 161-0374). The gel was run at 100V for approximately 2 hours. Protein was transferred to a PVDF membrane at 100V for 60 minutes. Once the transfer was finished, the membrane was blocked in 1% Casein in PBS (BioRad Cat#161-0783) for 1 hour on a plate rocker at room temperature followed by the overnight incubation at 4° C. with STAT1 primary antibody (Clontech, Cat# 610185) diluted 1:500 in 1% Casein in PBS. On the next day, the blot was washed 4×5 minutes in PBST (0.1% Tween-20 in PBS) solution and incubated for 30 minutes at room temperature with goat anti-mouse secondary antibody (Pierce Cat #3 31430) diluted 1:20,000 in 1% Casein in PBS. Then, the blot was washed 4×5 minutes with PBST, rinsed with PBS, and incubated for 1 minute with ECL Western Blotting Substrate (Pierce Biotechnology, Cat# 32106). The bands were visualized on the Bio-Rad VersaDoc Imager.
The level of protein was quantified using the Bio-Rad VersaDoc Imager according to the protocols of that piece of equipment. A pixel count was performed in each lane using an area of identical size. Each sample was then compared to the appropriate control treated sample and converted to a percent of protein remaining compared to control.
(§3) An assessment of the level of mRNA at each timepoint was also made and protein samples from the treated cells were used in Western blots with an α-STAT1 antibody. (Clontech, Cat# 610185) and anti-Tubulin Ab (Sigma # T6199) in human A549 cells. Cells were transfected 24, 48 or 72 hours before harvesting total protein and the final concentration of siNAs was 30 nM. Lanes were loaded with 10 ug of total protein. Quantification was done of both the STAT1α and the STAT1β proteins together. All the siNAs tested reduced STAT1 protein at each of the tested timepoints, with the highest degree of protein reduction being observed at 72 hours post-transfection.

[3] = system: STAT1 mRNA; experiment: STAT1 mRNA level at 24, 48 and 72 hours post-transfection in A549 cells; type: cell-based, human; details: STAT1 mRNA remaining vs control, A549, 30 nM; for mRNA 24 hr: 24 hr post-transfection; for mRNA 48 hr: 48 hr post-transfection; for mRNA 72 hr: 72 hr post-transfection
Protocol: as §2, §1, §3

[4] = system: TLR3; experiment: TLR3 mediated immunostimulation (OAS1 mRNA increase) in NHBE cells; type: cell-based, human; details: % increase in OAS1 mRNA, 0.01-100 nM siNA, n = 3 donors
Protocol: NHBE cell were treated as describe above in Example 2 and used for the measurement of endosomal TLR3 mediated immunostimulation, with the inclusion of polyI:C as a positive control for OAS1 mRNA upregulation. For the measurement of membrane bound TLR3 mediated immunostimulation, the NHBE cells were cultured at 1200 cells/per 96 well and siNAs administered in PBS in the absence of a delivery vehicle at (100 nM, 30 nM, 10 nM, 3 nM, 1 nM, 0.3 nM, 0.1 nM, 0.03 nM, 0.01 nM).
Cell surface TLR3 mediated immunostimulation responses were measured by recording the % increase in OAS1 mRNA levels when the NHBE cells were treated with the siNAs in the absence of a delivery vehicle. (% increase in OAS1 mRNA levels relative to the PBS dilutant).
To determine immunostimulation TLR3 mediated % increase in OAS1(immunostimulatory biomarker) mRNA levels, a nine point dose response was measured using 0.01-100 nM concentration of siNA 25368-DC and siNA 25372-DC.
Endosomal TLR3 mediated immuno stimulation was measured by recording the % increase in OAS1 mRNA levels when the NHBE cells were transfected with the siNAs. (% increase in OAS1 mRNA levels relative to the transfection agent control). The TLR3 agonist Poly I:C is used as a positive control for OAS1 mRNA induction.

In the case of “25351-DC: STAT1 siNA duplex, human target site 2249; modified strands SEQ ID NO: 39 and 40 (chain 1 CCUACACGAAGAAAGAACUTT; chain 2 AGUUCUUUCUUCGUGUAGGUU; chain 1: DNA at AGT, 2'-fluoro at CU, [invAb] at 5' end, 3' end, backbone not given here; chain 2: sugars from the 5' end rrrfffffffffmfmfmmmmm, backbone not given here)”, the IC50 [1] is reported as 0.248 ± 0.086 nM, the “Mouse (NIH3T3) avg % KD” value [1] is reported as 85.1 ± 3.5% and the “Protein 24 hr” value [2] is reported as 87%. The “Protein 48 hr” value [2] was 48%, the “Protein 72 hr” value [2] was 20% and the “mRNA 24 hr” value [3] was 3%. For the same substance, the “mRNA 48 hr” value [3] was 2% and the “mRNA 72 hr” value [3] was 2%.
“25367-DC: STAT1 siNA duplex, human target site 966; modified strands SEQ ID NO: 71 and 72 (chain 1 GCUUGACAAUAAGAGAAAGTT; chain 2 CUUUCUCUUAUUGUCAAGCUU; chain 1: DNA at AGT, 2'-fluoro at CU, [invAb] at 5' end, 3' end, backbone not given here; chain 2: sugars from the 5' end rrrffffffmffmffmmmfmm, backbone not given here)” was tested, and the IC50 [1] was 0.16 ± 0.034 nM, the “Mouse (NIH3T3) avg % KD” value [1] was 84.6 ± 2.6% and the “Protein 24 hr” value [2] was 83%. The “Protein 48 hr” value [2] was 53%, the “Protein 72 hr” value [2] was 30% and the “mRNA 24 hr” value [3] was 3%. The “mRNA 48 hr” value [3] was 2% and the “mRNA 72 hr” value [3] was 2%.
In the case of “25368-DC: STAT1 siNA duplex, human target site 782; modified strands SEQ ID NO: 73 and 74 (chain 1 GUAAAGUCAGAAAUGUGAATT; chain 2 UUCACAUUUCUGACUUUACUU; chain 1: DNA at AGT, 2'-fluoro at CU, [invAb] at 5' end, 3' end, backbone not given here; chain 2: sugars from the 5' end rrrmfmfffffmmffffmfmm, backbone not given here)”, the IC50 [1] is reported as 0.072 ± 0.023 nM, the “Mouse (NIH3T3) avg % KD” value [1] is reported as 89.9 ± 6.0% and the “Protein 24 hr” value [2] is reported as 80%. The “Protein 48 hr” value [2] was 54%, the “Protein 72 hr” value [2] was 20% and the “mRNA 24 hr” value [3] was 3%. The “mRNA 48 hr” value [3] was 3%, the “mRNA 72 hr” value [3] was 3% and the “Immunostimulation TLR3 mediated OAS1” value [4] was “No significant effect up to 100 nM”.
In the case of “25369-DC: STAT1 siNA duplex, human target site 602; modified strands SEQ ID NO: 75 and 76 (chain 1 GGAAAAGCAAGCGUAAUCUTT; chain 2 AGAUUACGCUUGCUUUUCCUU; chain 1: DNA at AGT, 2'-fluoro at CU, [invAb] at 5' end, 3' end, backbone not given here; chain 2: sugars from the 5' end rrrffmfmfffmfffffffmm, backbone not given here)”, the IC50 [1] is reported as 0.58 ± 0.109 nM, the “Mouse (NIH3T3) avg % KD” value [1] is reported as 60.8 ± 3.5% and the “Protein 24 hr” value [2] is reported as 85%. For the same substance, the “Protein 48 hr” value [2] was 58%, the “Protein 72 hr” value [2] was 38% and the “mRNA 24 hr” value [3] was 8%. The “mRNA 48 hr” value [3] was 7% and the “mRNA 72 hr” value [3] was 14%.
With “25372-DC: STAT1 siNA duplex, human target site 968; modified strands SEQ ID NO: 81 and 82 (chain 1 UUGACAAUAAGAGAAAGGATT; chain 2 UCCUUUCUCUUAUUGUCAAUU; chain 1: DNA at AGT, 2'-fluoro at CU, [invAb] at 5' end, 3' end, backbone not given here; chain 2: sugars from the 5' end rrrffffffffmffmffmmmm, backbone not given here)” the IC50 [1] was 0.182 ± 0.051 nM, the “Mouse (NIH3T3) avg % KD” value [1] was 87.3 ± 7.2% and the “Protein 24 hr” value [2] was 76%. For the same substance, the “Protein 48 hr” value [2] was 54%, the “Protein 72 hr” value [2] was 29% and the “mRNA 24 hr” value [3] was 4%. The “mRNA 48 hr” value [3] was 3%, the “mRNA 72 hr” value [3] was 3% and the “Immunostimulation TLR3 mediated OAS1” value [4] was “No significant effect up to 100 nM”.
